{"source": "patent US11672795B2", "about": "“Compositions and methods for treating pulmonary vascular disease” (UNIVERSITY OF PITTSBURGH-OF THE COMMONWEALTH SYSTEM OF …, priority 2016, dated 2023)", "key": {"PAECs [1]": {"system": "PAECs", "experiment": "Proliferation of PAECs (cell count, BrdU pulse, PCNA staining)", "format": "cell-based, human", "details": "PAECs, stiff matrix, 48 h after plating", "method": "A-C) PAECs were plated on soft (1 kPa) or stiff (50 kPa) matrix and exposed to indicated treatments. Apoptosis (A-C) and proliferation (B-C) were quantified 48 h after plating. […] Apoptosis (as reflected by cleaved caspase-3 staining, CC-3+) was increased by serum starvation in both soft and stiff conditions but was not affected by GLS1 inhibition. In all panels, mean expression in control groups (soft matrix) was assigned a fold change of 1, to which relevant samples were compared. Data are expressed as mean±SD (*P<0.05; ** P<0.01, ***P<0.001).\n(§1) After various indicated treatments, cultured cells were fixed with PBS/PFA 4% for 10 min and permeabilized with PBS/Triton 100×0.1% for 10 min. The cells were then incubated with anti-PCNA (#4912; 1/100; Invitrogen), anti-Ki67 (ab15580; 1/200; Abcam), and/or anti-cleaved caspase-3 (1/200; Cell Signaling) at room temperature for 2 hours. Secondary antibodies coupled with Alexa-594 and/or Alexa-488 (Thermo Scientific) were used at 1/500. Nuclei were counterstained with DAPI (Sigma).\nAfter specified pre-treatment or transfection protocols as indicated, PAECs or PASMCs were plated in triplicate in 6 well plates at 30 000 cells per well. After overnight incubation for cells to adhere, 6 wells were counted to determine initial count at time of treatments (glutamate, aspartate, BPTES, DON or C968). After 2 days, 4 days or 6 days, the contents of the wells were trypsinized and counted, and proliferation rate was calculated.\nExponentially growing cells were plated in the indicated matrix for 48 hours."}, "PAECs [2]": {"system": "PAECs", "experiment": "Apoptosis of PAECs on soft or stiff matrix (caspase 3/7 activity, cleaved caspase-3 staining)", "format": "cell-based, human", "method": "A-C) PAECs were plated on soft (1 kPa) or stiff (50 kPa) matrix and exposed to indicated treatments. Apoptosis (A-C) and proliferation (B-C) were quantified 48 h after plating. […] In all panels, mean expression in control groups (soft matrix) was assigned a fold change of 1, to which relevant samples were compared. Data are expressed as mean±SD (*P<0.05; ** P<0.01, ***P<0.001).\nas §1\nCaspase 3/7 activity was quantified using the Caspase-Glo 3/7 Assay (Promega), according to manufacturer's instructions. Briefly, cells were plated on hydrogel of different stiffness and treated as described. Twenty four hours after plating, cells were cultured in the presence or absence of serum for twenty-four hours. Cells were then lysed and 10 μg of total protein were incubated for 1 h with the caspase substrates, and luminescence was quantified by plate reader (SynergyHTX multi-mode reader, Biotek)."}}}
{"smiles": "CN(C)c1ccc(C2Nc3ccc4ccccc4c3C3=C2C(=O)CC(C)(C)C3)cc1Br", "note": "(stereo not drawn) [C968, 5-(3-Bromo-4-(dimethylamino)phenyl)-2,2-dimethyl-2,3,5,6-tetrahydrobenzo[a]phenanthridin-4(1H)-one]", "values": [{"measurement": "proliferation in stiff matrix (PCNA+)", "setting": "PAECs [1]", "value": "decreased"}, {"measurement": "apoptosis (cleaved caspase-3 staining, CC-3+)", "setting": "PAECs [2]; serum starvation, soft and stiff conditions", "value": "not affected"}, {"measurement": "caspase 3/7 activity", "setting": "PAECs [2]; soft (1 kPa) or stiff (50 kPa) matrix, 24 h after serum depletion, vs vehicle control", "value": "No significant changes"}]}
